# Assay results reported in BigSolDB 2.1.
smiles,measurement,setting,value
O=C(O[C@@H]1Cc2c(O)cc(O)cc2O[C@@H]1c1cc(O)c(O)c(O)c1)c1cc(O)c(O)c(O)c1,solubility (mole fraction),"in 2-butoxyethanol, 278.15 K",0.00142
same,solubility (mole fraction),"in 2-butoxyethanol, 288.15 K",0.00195
same,solubility (mole fraction),"in 2-butoxyethanol, 298.15 K",0.00268
same,solubility (mole fraction),"in 2-butoxyethanol, 308.15 K",0.00384
same,solubility (mole fraction),"in 2-butoxyethanol, 318.15 K",0.00559
same,solubility (mole fraction),"in 2-ethoxyethanol, 278.15 K",0.00904
same,solubility (mole fraction),"in 2-ethoxyethanol, 288.15 K",0.0151
same,solubility (mole fraction),"in 2-ethoxyethanol, 298.15 K",0.0272
same,solubility (mole fraction),"in 2-ethoxyethanol, 308.15 K",0.0436
same,solubility (mole fraction),"in 2-ethoxyethanol, 318.15 K",0.0701
same,solubility (mole fraction),"in 2-methoxyethanol, 278.15 K",0.0158
same,solubility (mole fraction),"in 2-methoxyethanol, 288.15 K",0.0254
same,solubility (mole fraction),"in 2-methoxyethanol, 298.15 K",0.0365
same,solubility (mole fraction),"in 2-methoxyethanol, 308.15 K",0.0558
same,solubility (mole fraction),"in 2-methoxyethanol, 318.15 K",0.0815
same,solubility (mole fraction),"in 2-propoxyethanol, 278.15 K",0.00275
same,solubility (mole fraction),"in 2-propoxyethanol, 288.15 K",0.00352
same,solubility (mole fraction),"in 2-propoxyethanol, 298.15 K",0.00456
same,solubility (mole fraction),"in 2-propoxyethanol, 308.15 K",0.0059
same,solubility (mole fraction),"in 2-propoxyethanol, 318.15 K",0.00809
same,solubility (mole fraction),"in ethanol, 278.15 K",5.41e-05
same,solubility (mole fraction),"in ethanol, 288.15 K",9.24e-05
same,solubility (mole fraction),"in ethanol, 298.15 K",0.000175
same,solubility (mole fraction),"in ethanol, 308.15 K",0.000387
same,solubility (mole fraction),"in ethanol, 318.15 K",0.000714
same,solubility (mole fraction),"in isopropanol, 278.15 K",6e-06
same,solubility (mole fraction),"in isopropanol, 288.15 K",1.67e-05
same,solubility (mole fraction),"in isopropanol, 298.15 K",5.53e-05
same,solubility (mole fraction),"in isopropanol, 308.15 K",0.000194
same,solubility (mole fraction),"in isopropanol, 318.15 K",0.000481
same,solubility (mole fraction),"in methanol, 288.15 K",1.65e-05
same,solubility (mole fraction),"in methanol, 298.15 K",5.8e-05
same,solubility (mole fraction),"in methanol, 308.15 K",0.000184
same,solubility (mole fraction),"in methanol, 318.15 K",0.000612
same,solubility (mole fraction),"in n-butanol, 288.15 K",1.95e-05
same,solubility (mole fraction),"in n-butanol, 298.15 K",5.41e-05
same,solubility (mole fraction),"in n-butanol, 308.15 K",0.000136
same,solubility (mole fraction),"in n-butanol, 318.15 K",0.000349
same,solubility (mole fraction),"in n-hexanol, 278.15 K",6.8e-07
same,solubility (mole fraction),"in n-hexanol, 288.15 K",3.87e-06
same,solubility (mole fraction),"in n-hexanol, 298.15 K",1.79e-05
same,solubility (mole fraction),"in n-hexanol, 308.15 K",5.35e-05
same,solubility (mole fraction),"in n-hexanol, 318.15 K",0.000138
same,solubility (mole fraction),"in n-pentanol, 278.15 K",9.9e-07
same,solubility (mole fraction),"in n-pentanol, 288.15 K",5.7e-06
same,solubility (mole fraction),"in n-pentanol, 298.15 K",3.01e-05
same,solubility (mole fraction),"in n-pentanol, 308.15 K",8.6e-05
same,solubility (mole fraction),"in n-pentanol, 318.15 K",0.000187
same,solubility (mole fraction),"in n-propanol, 278.15 K",1.22e-05
same,solubility (mole fraction),"in n-propanol, 288.15 K",3.79e-05
same,solubility (mole fraction),"in n-propanol, 298.15 K",9.06e-05
same,solubility (mole fraction),"in n-propanol, 308.15 K",0.000195
same,solubility (mole fraction),"in n-propanol, 318.15 K",0.000656
same,solubility (mole fraction),"in sec-butanol, 278.15 K",5.04e-06
same,solubility (mole fraction),"in sec-butanol, 288.15 K",2.12e-05
same,solubility (mole fraction),"in sec-butanol, 298.15 K",4.97e-05
same,solubility (mole fraction),"in sec-butanol, 308.15 K",0.00014
same,solubility (mole fraction),"in sec-butanol, 318.15 K",0.000636
